target: T1, CDK8/CycC (Homo sapiens, UniProt P49336); experiment: FRET based Lanthascreen binding competition assay for CDK8 inhibitory activity; conditions: CDK8 co-expressed with CycC; class symbols; read-out: IC50
T1 construct: purchased Invitrogen PV4402
Excerpt: Biochemical Assay for CDK8 Inhibitory Activity FRET based Lanthascreen binding competition assay: A dye-labeled ATP competitive probe served as a FRET acceptor upon binding to CDK8 labeled with a strepavidin -Eu-chelate (via a biotinylated anti His antibody). The result was a fluorescence signal at 647 nm. In case this probe was competed by an inhibitor, such a signal cannot be generated any more. The CDK8 used for this assay was a protein co-expressed with CycC. The assay procedure for an assay in a 1536 well plate was performed according to the following: 2 μL CDK8/biotin-anti-His Ab/SA-Eu mix in Assay buffer were pipetted into the wells of a micro plate. 1 μL compound in 20 mM Hepes buffer/5% DMSO was added. The plate was shaken for 30 sec and incubated for 20 min at RT. 2 μL Alexa647-probe in assay buffer were added. The plate was shaken for 30 sec again and incubated for 60 min at RT in the dark. Then the plate was read out on a Perkin Elmer Envision (mode LANCE/TRF, excitation 340 nm emission 650 nm). […] The readouts were fitted to IC50 curves using Genedata Condoseo.

T1 sequence (P49336 whole entry): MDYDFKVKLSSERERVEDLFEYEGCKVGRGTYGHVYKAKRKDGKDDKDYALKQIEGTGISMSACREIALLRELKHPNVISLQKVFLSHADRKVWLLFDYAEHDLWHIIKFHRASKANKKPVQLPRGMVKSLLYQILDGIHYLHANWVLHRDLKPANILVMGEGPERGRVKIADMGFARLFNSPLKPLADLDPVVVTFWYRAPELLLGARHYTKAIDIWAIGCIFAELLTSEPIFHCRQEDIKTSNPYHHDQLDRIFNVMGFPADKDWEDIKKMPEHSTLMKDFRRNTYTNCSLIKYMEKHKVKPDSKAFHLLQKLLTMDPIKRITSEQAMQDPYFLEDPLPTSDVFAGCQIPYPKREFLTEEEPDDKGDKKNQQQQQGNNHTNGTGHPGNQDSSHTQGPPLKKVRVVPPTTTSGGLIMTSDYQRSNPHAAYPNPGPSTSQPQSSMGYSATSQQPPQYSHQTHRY
T1 sequence (P24863 whole entry partner): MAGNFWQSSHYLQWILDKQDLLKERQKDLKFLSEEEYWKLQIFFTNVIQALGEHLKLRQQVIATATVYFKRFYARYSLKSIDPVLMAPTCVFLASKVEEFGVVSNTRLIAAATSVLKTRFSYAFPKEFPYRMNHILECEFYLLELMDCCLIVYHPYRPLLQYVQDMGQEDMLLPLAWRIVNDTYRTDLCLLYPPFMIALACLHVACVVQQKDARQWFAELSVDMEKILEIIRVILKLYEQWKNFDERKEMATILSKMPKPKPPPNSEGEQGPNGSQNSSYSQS

`CC(C)Cc1n[nH]c2ccc(C(=O)N3CCC[C@H]3c3ccc(Cl)cc3)cc12` [compound 31] and `Cc1n[nH]c2ccc(C(=O)N3CCC[C@H]3c3ccc(Br)cc3)cc12` [compound 49, [(S)-2-(4-Bromo-phenyl)-pyrrolidin-1-yl]-(3-methyl-1H-indazol-5-yl)-methanone] cannot be ordered by IC50: less than 0.01 µM for the first, less than 0.01 µM for the second.

`Cc1n[nH]c2ncc(C(=O)N3CCCC3c3ccncc3)cc12` (centres unmarked) [compound 32, (3-Methyl-1H-pyrazolo[3,4-b]pyridin-5-yl)-(2-pyridin-4-yl-pyrrolidin-1-yl)-methanone] and `Cc1n[nH]c2ncc(C(=O)N3CCC[C@@H]3c3ccccc3)cc12` [compound 38, (3-Methyl-1H-pyrazolo[3,4-b]pyridin-5-yl)-((R)-2-phenyl-pyrrolidin-1-yl)-methanone] fall in the same range of IC50: 0.1 to 1 µM for the first, 0.1 to 1 µM for the second.

`CSc1ccccc1[C@@H]1CCCN1C(=O)c1cnc2[nH]nc(C)c2c1` [compound 33, (3-Methyl-1H-pyrazolo[3,4-b]pyridin-5-yl)-[(S)-2-(2-methylsulfanyl-phenyl)-pyrrolidin-1-yl]-methanone] and `CSc1ccccc1[C@H]1CCCN1C(=O)c1cnc2[nH]nc(C)c2c1` [compound 34, (3-Methyl-1H-pyrazolo[3,4-b]pyridin-5-yl)-[(R)-2-(2-methylsulfanyl-phenyl)-pyrrolidin-1-yl]-methanone] fall in the same range of IC50: 0.1 to 1 µM for the first, 0.1 to 1 µM for the second.

First: Cc1n[nH]c2ncc(C(=O)N3CCC[C@H]3c3ccccc3Cl)cc12 [compound 36, [(S)-2-(2-Chloro-phenyl)-pyrrolidin-1-yl]-(3-methyl-1H-pyrazolo[3,4-b]pyridin-5-yl)-methanone]
Second: Cc1n[nH]c2ncc(C(=O)N3CCC[C@@H]3c3ccccc3Cl)cc12 [compound 37, [(R)-2-(2-Chloro-phenyl)-pyrrolidin-1-yl]-(3-methyl-1H-pyrazolo[3,4-b]pyridin-5-yl)-methanone]
The IC50 of the first is lower: 0.01 to 0.1 µM for the first, 0.1 to 1 µM for the second. The first is the more potent here.

Compared with `Cc1n[nH]c2ncc(C(=O)N3CCC[C@H]3c3ccccc3)cc12` [compound 39, (3-Methyl-1H-pyrazolo[3,4-b]pyridin-5-yl)-((S)-2-phenyl-pyrrolidin-1-yl)-methanone], `Cc1n[nH]c2ncc(C(=O)N3CCC[C@@H]3c3cccc(Cl)c3)cc12` [compound 45, [(r)-2-(3-Chloro-phenyl)-pyrrolidin-1-yl]-(3-methyl-1H-pyrazolo[3,4-b]pyridin-5-yl)-methanone] is higher in IC50: less than 0.01 µM for the first, 0.1 to 1 µM for the second.

First: Cc1n[nH]c2ncc(C(=O)N3CC[C@H](c4ccccc4)C3)cc12 [compound 40, (3-Methyl-1H-pyrazolo[3,4-b]pyridin-5-yl)-((R)-3-phenyl-pyrrolidin-1-yl)-methanone]
Second: Cc1n[nH]c2ncc(C(=O)N3CC[C@@H](c4ccccc4)C3)cc12 [compound 41, (3-Methyl-1H-pyrazolo[3,4-b]pyridin-5-yl)-((S)-3-phenyl-pyrrolidin-1-yl)-methanone]
The IC50 of the first is higher: 0.1 to 1 µM for the first, 0.01 to 0.1 µM for the second.

First: Cc1n[nH]c2ncc(C(=O)N3CCC[C@H]3c3ccc(F)cc3)cc12 [compound 43, [(S)-2-(4-Fluoro-phenyl)-pyrrolidin-1-yl]-(3-methyl-1H-pyrazolo[3,4-b]pyridin-5-yl)-methanone]
Second: Cc1n[nH]c2ncc(C(=O)N3CCC[C@@H]3c3ccc(F)cc3)cc12 [compound 44, [(R)-2-(4-Fluoro-phenyl)-pyrrolidin-1-yl]-(3-methyl-1H-pyrazolo[3,4-b]pyridin-5-yl)-methanone]
The IC50 of the first is lower: less than 0.01 µM for the first, 0.1 to 1 µM for the second.

`Cc1n[nH]c2ncc(C(=O)N3CCC[C@H]3c3cccc(Cl)c3)cc12` [compound 46, [(S)-2-(3-Chloro-phenyl)-pyrrolidin-1-yl]-(3-methyl-1H-pyrazolo[3,4-b]pyridin-5-yl)-methanone] was tested, and the IC50 was 0.01 to 0.1 µM.

same assay, conditions: IC50 [μM], CDK8 co-expressed with CycC; class symbols

Compared with `Cc1n[nH]c2ccc(C(=O)N3CCC[C@@H]3c3ccc(Cl)cc3)cc12` [compound 47, [(R)-2-(4-Chloro-phenyl)-pyrrolidin-1-yl]-(3-methyl-1H-indazol-5-yl)-methanone], `Cc1n[nH]c2ccc(C(=O)N3CCC[C@H]3c3ccc(Cl)cc3)cc12` [compound 48, [(S)-2-(4-Chloro-phenyl)-pyrrolidin-1-yl]-(3-methyl-1H-indazol-5-yl)-methanone] is lower in IC50: 0.1 to 1 µM for the first, less than 0.01 µM for the second.

From patent publication US9862717B2 (Merck Patent GmbH, priority 2014, dated 2018)
